What was measured:
[1] = system: antibodies in sera from SARS patients (sera 1a, 1b, 2, 6, 37, 62, London, SARS-yellow, SARS-green); format: binding, human; design: Binding of serum 6 to linear peptides of protein X1 of SARS-CoV Urbani / Binding of serum 37 to linear peptides of protein X1 of SARS-CoV Urbani / Binding of serum 6 to looped/cyclic peptide (PEPSCAN-ELISA) / Binding of serum 37 to looped/cyclic peptide (PEPSCAN-ELISA) / Binding of serum 37 to looped/cyclic peptides of protein X1 of SARS-CoV Urbani / Binding of serum 6 to linear peptides of protein X2 / Binding of serum 37 to linear peptides of protein X2 / Binding of serum 37 to looped/cyclic peptides of protein X2 of SARS-CoV Urbani / Binding of serum 6 to linear peptides of protein M of SARS-CoV Urbani / Binding of serum 37 to linear peptides of protein M of SARS-CoV Urbani / Binding of serum 6 to looped/cyclic peptides of protein M of SARS-CoV Urbani / Binding of serum 37 to looped/cyclic peptides of protein M of SARS-CoV Urbani / Binding of serum 6 to linear peptides of protein X3 of SARS-CoV Urbani / Binding of serum 37 to linear peptides of protein X3 of SARS-CoV Urbani / Binding of serum 37 to looped/cyclic peptides of protein X3 of SARS-CoV Urbani / Binding of serum 6 to linear peptides of protein X4 of SARS-CoV Urbani / Binding of serum 37 to linear peptides of protein X4 of SARS-CoV Urbani / Binding of serum 37 to looped/cyclic peptides of protein X4 of SARS-CoV Urbani / Binding of serum 6 to linear peptides of protein X5 of SARS-CoV Urbani / Binding of serum 37 to linear peptides of protein X5 of SARS-CoV Urbani / Binding of serum 37 to looped/cyclic peptides of protein X5 of SARS-CoV Urbani / Binding of serum 6 to linear peptides of protein N of SARS-CoV Urbani / Binding of serum 37 to linear peptides of protein N of SARS-CoV Urbani / Binding of serum 6 to linear peptide (PEPSCAN-ELISA) / Binding of serum 1a to looped/cyclic peptides of protein N of SARS-CoV Urbani / Binding of serum 1b to looped/cyclic peptides of protein N of SARS-CoV Urbani / Binding of serum 2 to looped/cyclic peptides of protein N of SARS-CoV Urbani / Binding of serum 6 to looped/cyclic peptides of protein N of SARS-CoV Urbani / Binding of serum 37 to looped/cyclic peptides of protein N of SARS-CoV Urbani / Binding of serum 62 to looped/cyclic peptides of protein N of SARS-CoV Urbani / Binding of serum London to looped/cyclic peptides of protein N of SARS-CoV Urbani / Binding of serum SARS-green to looped/cyclic peptides of protein N of SARS-CoV Urbani: unit not given here
[2] = system: control sera (pooled serum of ten healthy LUMC hospital workers; commercial negative donor pooled serum from the Dutch bloodbank); format: binding, human; design: Binding of Control serum LUMC to linear peptides / Binding of Control serum Blood-bank to linear peptides / Binding of Control serum LUMC to looped peptides / Binding of Control Serum Blood-Bank to Looped peptides / Binding of Control serum LUMC to linear peptides of the protein M of SARS-CoV Urbani / Binding of Control serum Blood-bank to linear peptides of the protein M of SARS-CoV Urbani / Binding of Control serum LUMC to looped peptides of the protein M of SARS-CoV Urbani / Binding of Control Serum Blood-Bank to Looped peptides of the protein M of SARS-CoV Urbani: unit not given here
[3] = system: rabbit serum obtained by immunizing a rabbit with the SARS-CoV strain Frankfurt 1; format: binding; design: Binding of a rabbit serum to linear peptides / Binding of a rabbit serum to looped peptides / Rabbit serum linear peptides / Rabbit serum looped peptides / Binding of a rabbit serum to linear peptides of protein N of SARS-CoV Urbani (Rabbit serum linear peptides) / Binding of a rabbit serum to looped/cyclic peptides of protein N of SARS-CoV Urbani (Rabbit serum looped peptides): unit not given here
[4] = system: recombinant human anti-SARS-CoV antibody 03-018; format: binding; design: Binding of antibody 03-018 to linear peptides of the N protein of SARS-CoV Urbani / Binding of antibody 03-018 to looped/cyclic peptides of the N protein of SARS-CoV Urbani: unit not given here

| Sequence | Binding of serum 1a to linear peptides of protein N of SARS-CoV Urbani [1] | Binding of serum 1a to looped/cyclic peptides of protein N of SARS-CoV Urbani [1] | Binding of serum 1b to linear peptides of protein N of SARS-CoV Urbani [1] | Binding of serum 1b to looped/cyclic peptides of protein N of SARS-CoV Urbani [1] | Binding of serum 2 to linear peptides of protein N of SARS-CoV Urbani [1] | Binding of serum 2 to looped/cyclic peptides of protein N of SARS-CoV Urbani [1] | Binding of serum 6 to linear peptides of protein N of SARS-CoV Urbani [1] | Binding of serum 6 to looped/cyclic peptides of protein N of SARS-CoV Urbani [1] | Binding of serum 37 to linear peptides of protein N of SARS-CoV Urbani [1] | Binding of serum 37 to looped/cyclic peptides of protein N of SARS-CoV Urbani [1] | Binding of serum 62 to linear peptides of protein N of SARS-CoV Urbani [1] | Binding of serum 62 to looped/cyclic peptides of protein N of SARS-CoV Urbani [1] | Binding of serum London to linear peptides of protein N of SARS-CoV Urbani [1] | Binding of serum London to looped/cyclic peptides of protein N of SARS-CoV Urbani [1] | Binding of serum SARS-green to looped/cyclic peptides of protein N of SARS-CoV Urbani [1] | Binding of serum SARS-yellow to looped/cyclic peptides of protein N of SARS-CoV Urbani [1] | Binding of a rabbit serum to linear peptides of protein N of SARS-CoV Urbani (Rabbit serum linear peptides) [3] | Binding of a rabbit serum to looped/cyclic peptides of protein N of SARS-CoV Urbani (Rabbit serum looped peptides) [3] | Binding of antibody 03-018 to linear peptides of the N protein of SARS-CoV Urbani [4] | Binding of antibody 03-018 to looped/cyclic peptides of the N protein of SARS-CoV Urbani [4] | further results |
| --- | --- | --- | --- | --- | --- | --- | --- | --- | --- | --- | --- | --- | --- | --- | --- | --- | --- | --- | --- | --- | --- |
| PSGTWLTYHGAIKLD | 0.3 | 0.2 | 0.2 | 0.1 | 0.2 | 0.2 | 0.2 | 0.1 | 1.0 | 0.4 | 0.8 | 0.3 | 0.7 | 0.3 | 0.1 | 0.1 | 0.1 | 0.0 | 0.1 | 0.2 | Binding of serum SARS-green to linear peptides of protein N of SARS-CoV Urbani [1]: 0.6; Binding of serum SARS-yellow to linear peptides of protein N of SARS-CoV Urbani [1]: 0.7; Control Serum Blood-Bank Looped peptides [2]: 0.4; Control serum Blood-bank linear peptides [2]: 0.7; Control serum LUMC linear peptides [2]: 0.6; Control serum LUMC looped peptides [2]: 0.4 |
| PYGANKEGIVWVATE | 0.3 | 0.4 | 0.2 | 0.3 | 0.2 | 0.5 | 0.2 | 0.3 | 1.0 | 0.9 | 0.8 | 0.9 | 0.7 | 0.5 | 0.8 | 0.7 | 0.2 | 0.2 | 0.1 | 0.2 | Binding of serum SARS-green to linear peptides of protein N of SARS-CoV Urbani [1]: 0.8; Binding of serum SARS-yellow to linear peptides of protein N of SARS-CoV Urbani [1]: 0.6; Binding of Control Serum Blood-Bank to Looped peptides [2]: 0.6; Binding of Control serum Blood-bank to linear peptides [2]: 0.7; Binding of Control serum LUMC to linear peptides [2]: 0.7; Binding of Control serum LUMC to looped peptides [2]: 0.7 |
| QAFGRRGPEQTQGNF | – | 0.3 | – | 0.2 | – | 0.3 | – | 0.2 | – | 0.3 | – | 0.3 | – | 0.3 | 0.2 | 0.2 | 0.1 | 0.3 | 0.1 | 0.2 | Binding of serum 1a to linear peptide (PEPSCAN-ELISA) [1]: 0.3; Binding of serum 1b to linear peptide (PEPSCAN-ELISA) [1]: 0.1; Binding of serum 2 to linear peptide (PEPSCAN-ELISA) [1]: 0.2; Binding of serum 6 to linear peptide (PEPSCAN-ELISA) [1]: 0.2; Binding of serum 37 to linear peptide (PEPSCAN-ELISA) [1]: 0.6; Binding of serum 62 to linear peptide (PEPSCAN-ELISA) [1]: 0.8; Binding of serum London to linear peptide (PEPSCAN-ELISA) [1]: 0.7; Binding of serum SARS-green to linear peptide (PEPSCAN-ELISA) [1]: 0.2; Binding of serum SARS-yellow to linear peptide (PEPSCAN-ELISA) [1]: 0.4; Binding of Control Serum Blood-Bank to Looped peptides [2]: 0.4; Binding of Control serum Blood-bank to linear peptides [2]: 0.9; Binding of Control serum LUMC to linear peptides [2]: 0.7; Binding of Control serum LUMC to looped peptides [2]: 0.4 |

Source: patent US20070128217A1 (priority 2003, published 2007)
